Read-outs that look alike come from different tables or passages of the source.
Experiments:
p70S6K (h) = p70S6K (h) (Homo sapiens, UniProt P23443); assay: Determination of p70S6 inhibitory activity (radiometric kinase assay); type: biochemical; details: read-out: (a) p70S6K1 IC50
Method: The ability of compounds of the invention to inhibit P70S6 kinase was determined using the protocol below.
20 mM MOPS, 1 mM EDTA, 0.01% Brij-35, 5% Glycerol, 0.1% b-mercaptoethanol, 1 mg/mL BSA
In a final reaction volume of 25 μL, p70S6K (h) (5-10 mU) is incubated with 8 mM MOPS pH 7.0, 0.2 mM EDTA, 100 μM KKRNRTLTV, 10 mM Mg acetate and [γ-33P-ATP] (specific activity approx. 500 cpm/pmol, concentration as required). The reaction is initiated by the addition of the MgATP mix. After incubation for 40 minutes at room temperature, the reaction is stopped by the addition of 5 μL of a 3% phosphoric acid solution. 10 μL of the reaction mixture is then spotted onto a P30 filtermat and washed three times for 5 minutes in 75 mM phosphoric acid and once in methanol prior to drying and scintillation counting.

[1] = Brain and plasma concentrations in an in vivo cassette mouse model; design: species or system male CD-1 mice; details: male, PO cassette, 2.5 mg/kg per compound
Method: The compounds of this invention were evaluated in an in vivo cassette mouse model to determine brain and plasma concentrations following oral dosing. This is an industry-standard and recognised means to assess brain penetration of small molecules (for recent literature article, refer to In vitro permeability analysis, pharmacokinetic and brain distribution study in mice of imperatorin, isoimperatorin and cnidilin in Radix Angelicae Dahuricae, Fitoterapia, Volume 85, March 2013 , Pages 144-153). It is also recognised that higher brain concentrations (and higher ratios of brain: plasma concentration) lead to greater exposure in the brain—this is clearly advantageous if the brain is the site of action.
For a single cassette study, male CD-1 mice were used (n=3 per timepoint, two timepoints: 1.0 hr and 3.0 hr).
5 compounds were dosed PO per cassette (dose level 2.5 mg/kg per compound, dose conc. 0.25 mg/ml, dose volume 10.0 ml/kg).
Formulation used to solubilize compounds: 10% DMSO/90% hydroxypropyl-β-cyclodextrin (20% w/v aqueous)
Sampling was terminal and plasma and brain matrices were generated. To prepare plasma samples, protein was precipitated using acetonitrile. To prepare brain samples, homogenisation and protein precipitation was performed with acetonitrile. Samples were analysed using HPLC-TOF MS using electrospray ionisation.

MDA-MB-231 cells = assay: Tumour initiation and metastasis in an in vivo model of triple negative breast cancer (MDA-MB-231, mammary fat pad); design: species or system female athymic nude mice
From the text: In order to test the efficacy of an inhibitor of S6K1 in an in vivo model of tumour initiation and metastasis, the following experiment was established:
A total of 30 female athymic nude mice (Hsd:Athymic Nude-Foxn1^nu) were purchased from Harlan (UK) and acclimatised for 7 days prior to study commencement. Animals were housed in IVC cages (5 per cage) with individual mice identified by ear punch. All animals were allowed free access to a standard certified commercial diet and sanitised water during the study. The holding room was maintained under standard conditions: 20-24° C., 40-70% humidity and a 12 h light/dark cycle.
On day −1, animals were randomly assigned to treatment groups as indicated in the table below, and drug treatment commenced. On day 0, MDA-MB-231 cells (1×10^6 in matrigel) were implanted into the second mammary fat pad.
The dosing route was PO and the formulation was as follows: 10% DMSO/90% hydroxypropyl-β-cyclodextrin (20% w/v aqueous)
(1) Time to palpation of tumour (latency) (2) tumour volume (3) tumour and organ weights as a measure of metastasis (4) visual appearance of metastatic nodules in the lungs

[2] = system: audiogenic seizures in FXS (Fmr1 KO) mice; assay: Audiogenic seizure assay, in vivo model of Fragile X Syndrome; design: species or system FVB background; details: 25 mg/kg QD × 7 PO
From the text: Seizures occur in conjunction with FXS and autism in up to one-quarter of children with these disorders (Berry-Kravis E (2002) Epilepsy in fragile X syndrome. Dev. Med. Child Neurol. 44(11):724-728). […] The audiogenic seizure assay (AGS) is a well documented mouse model of FXS (Audiogenic seizures susceptibility in transgenic mice with fragile X syndrome, Epilepsia. 2000 January; 41(1):19-23). In such a model it is possible to dose compounds to observe effects on susceptibility of the mice to audiogenic seizures. The following AGS experiment was set up to test the efficacy of compounds of this application:
Strain of FXS Mouse Used: FVB Background
Vehicle used: 10% DMSO/90% hydroxypropyl-β-cyclodextrin (20% w/v aqueous)
Animals were assessed in AGS following 7 consecutive days of dosing.
The experimental chamber consisted of a plastic cage of dimensions 25×25×47 cm in which a doorbell (Electrical bell Heath Zenith, model 172C-A) had been mounted on the cage roof.
Mice were taken from their housing room one by one and transferred into the experimental chamber and allowed to explore the novel environment (basal noise ˜65 dB) for a period of 30 seconds after which point the bell was rung (124 dB).
The resulting motor responses were classified using a scale modified from the one originally described by Jobe et al. (1973): no response (NR: pause or continuous exploration), wild running (WR), clonic seizure (CS), tonic seizure (TS), respiratory arrest and/or death (RA). In order to define the intensity of the behavioral response a seizure severity score was used (SSS) (Musumeci et al., 2000), consisting of a score assigned to each animal depending on its behavioral response (NR=0, WR=1, CS=2, TS=3, RA=4). To determine the SSS for a treatment group the scores of the individual mice are summed. The motor response rate is defined as the percentage of animals per group responding to the stimulus.

[3] = 250 mg/kg p.o. QD 21 days, vs vehicle

Sequence of p70S6K (h) (P23443 whole entry): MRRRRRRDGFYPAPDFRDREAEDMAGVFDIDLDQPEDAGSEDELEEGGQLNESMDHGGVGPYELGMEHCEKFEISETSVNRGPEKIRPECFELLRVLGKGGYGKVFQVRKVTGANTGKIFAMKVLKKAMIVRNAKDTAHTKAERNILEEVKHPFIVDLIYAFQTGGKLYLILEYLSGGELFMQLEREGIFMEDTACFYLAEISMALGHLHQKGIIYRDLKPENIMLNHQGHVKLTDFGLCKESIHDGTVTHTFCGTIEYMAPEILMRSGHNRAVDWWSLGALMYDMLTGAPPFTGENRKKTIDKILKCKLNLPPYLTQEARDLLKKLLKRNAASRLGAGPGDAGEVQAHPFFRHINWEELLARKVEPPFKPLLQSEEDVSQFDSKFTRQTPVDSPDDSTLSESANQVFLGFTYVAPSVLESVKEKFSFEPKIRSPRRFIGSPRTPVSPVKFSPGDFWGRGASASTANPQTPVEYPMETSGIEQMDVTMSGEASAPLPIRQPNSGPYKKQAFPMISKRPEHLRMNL

Question: For `C[C@@H](Nc1cnc2cc(-c3cn[nH]c3)ccc2n1)c1cccc(Cl)c1` [Example 15], which IC50 (p70S6K (h)) is on record?
Answer: 6 nM

Question: What about the concentration at 3 h ([1]; CD-1, brain, read-out: (d) Brain conc. at 3 hours) of the same molecule?
Answer: 2430 nM

Question: And the Kp at 3 h ([1]; CD-1, brain, read-out: (d) Brain: Plasma ratio at 3 hours)?
Answer: 2

Question: What about the concentration at 3 h ([1]; CD-1, plasma, read-out: (d) Plasma conc. at 3 hours) of the same molecule?
Answer: 1190 nM

Question: What about the “Mean no. of nodules per lung” value (MDA-MB-231 cells; 250 mg/kg QD × 21, at necroscopy) of the same molecule?
Answer: 1

Question: What about the “Lung weight at day 21” value (MDA-MB-231 cells; [3]) of the same molecule?
Answer: reduction in weight of lungs

Question: And the “Rate of tumour incidence” value (MDA-MB-231 cells; [3])?
Answer: decreases

Question: What about the “Time to palpation of tumour (latency)” value (MDA-MB-231 cells; [3]) of the same molecule?
Answer: delays

Question: What about the “Tumour weight at day 21” value (MDA-MB-231 cells; [3]) of the same molecule?
Answer: weighed significantly less

Question: And the Tumour volume (MDA-MB-231 cells; 250 mg/kg p.o. QD 21 days, vs vehicle, p<0.05)?
Answer: reduction in volume of tumours which is statistically significant over vehicle

Question: What about the “CS (clonic seizure), number of animals” value [2] of the same molecule?
Answer: 0

Question: And the “NR (no response), number of animals” value [2]?
Answer: 6

Question: What about the “RA (respiratory arrest and/or death), number of animals” value [2] of the same molecule?
Answer: 0

Question: And the “SSS (seizure severity score, summed for the group)” value [2]?
Answer: 2

Question: What about the “TS (tonic seizure), number of animals” value [2] of the same molecule?
Answer: 0

Question: And the “WR (wild running), number of animals” value [2]?
Answer: 2

Question: And the “Incidence of audiogenic seizures and severity of response” value ([2]; vs vehicle, p<0.01 by Fisher's test)?
Answer: reduced

From US10144726B2, “Modulators of the p70S6 kinase for use in the treatment of brain disorders and triple-negative breast cancer” (SENTINEL ONCOLOGY LIMITED, priority 2015, dated 2018)
